Assay results published in US20150239831A1, “INHIBITORS OF CENTRAL NERVOUS SYSTEM VASOACTIVE INHIBITORY PEPTIDE RECEPTOR 2” (The Trustees Of Columbia University In The City Of New York, priority 2012, published 2015).

Assays:
Format in all cases: cell-based
Set-up in all cases: expressed in transfected cells; host or cells: HEK293 cells transfected with VIPR2 in pCDNA3.1 (as described)
VIPR2 [1] = molecular target: T1, VIPR2 (Homo sapiens, UniProt P41587); test: Inhibition of VIP-induced β-arrestin recruitment (% Activity Arrestin)
T1 sequence (P41587 24-438): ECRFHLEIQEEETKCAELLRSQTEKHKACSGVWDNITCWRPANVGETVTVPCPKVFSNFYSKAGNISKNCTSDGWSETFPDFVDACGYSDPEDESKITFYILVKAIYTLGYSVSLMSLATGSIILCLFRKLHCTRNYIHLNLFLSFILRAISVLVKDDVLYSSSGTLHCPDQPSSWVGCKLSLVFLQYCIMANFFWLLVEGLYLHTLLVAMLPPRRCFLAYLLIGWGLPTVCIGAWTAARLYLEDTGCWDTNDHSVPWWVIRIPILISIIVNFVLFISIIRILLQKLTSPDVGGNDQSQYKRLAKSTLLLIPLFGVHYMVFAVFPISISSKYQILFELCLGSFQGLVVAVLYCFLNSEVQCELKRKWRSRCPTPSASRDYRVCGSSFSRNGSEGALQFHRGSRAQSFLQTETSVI
In short: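 HEK293 cells stably expressing β-arrestin2–β-gal EA, transiently transfected with ProLink-tagged hVIPR2, plated overnight; inhibitor added for 2 h at 37 °C, 5% CO2. Receptor–arrestin complementation read by chemiluminescence after 5 min–1 h at room temperature; inhibition of VIP-induced recruitment reported as % activity.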

VIPR2 [2] = molecular target: T1, VIPR2; test: Inhibition of VIP-induced cAMP elevation (% Activity cAMP)
In short: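 HEK293 cells stably transfected with human VIPR2 were incubated with inhibitor and VIP for 30 min, then cAMP was detected by HTRF after at least 1 h at room temperature. The 665/620 nm ratio ×10,000 was calculated.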

VIPR2 [3] = molecular target: T1, VIPR2; test: % Activity: inhibition of VIP-induced cAMP elevation and β-arrestin recruitment (Table 2)
In short: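 cAMP: HEK293 stably expressing hVIPR2, inhibitor plus VIP 30 min, cAMP by HTRF (665/620 nm ratio ×10,000). β-arrestin: HEK293 with β-arrestin2-β-gal-EA, transiently transfected with VIPR2-ProLink; inhibitor 2 h at 37° C, enzyme complementation read by luminescence.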

Row | SMILES | inhibition at 0.5 µM (VIPR2 [1]; Batch 2) | inhibition at 1 µM (VIPR2 [1]; Batch 2) | inhibition at 5 µM (VIPR2 [1]; Batch 2) | inhibition at 0.5 µM (VIPR2 [2]; Batch 2) | inhibition at 1 µM (VIPR2 [2]; Batch 2) | inhibition at 5 µM (VIPR2 [2]; Batch 2) | % Activity (VIPR2 [3]) | inhibition at 0.5 µM (VIPR2 [1]; Batch 3) | inhibition at 1 µM (VIPR2 [1]; Batch 3) | inhibition at 5 µM (VIPR2 [1]; Batch 3) | inhibition at 0.5 µM (VIPR2 [2]; Batch 3) | inhibition at 1 µM (VIPR2 [2]; Batch 3) | inhibition at 5 µM (VIPR2 [2]; Batch 3)
1 | O=C([C@H](Cc1ccccc1)C[C@H](O)CNS(=O)(=O)c1ccc([N+](=O)[O-])cc1)N1CCCCC1 [Compound B18A] | -10.2% | -11.5% | -2.8% | -4.8% | -4.8% | 0.5% | −1.15% |  |  |  |  |  | 
2 | O=C([C@@H](Cc1ccccc1)C[C@H](O)CNS(=O)(=O)c1ccc([N+](=O)[O-])cc1)N1CCCCC1 [Compound B18B] | 0.5% | 9.2% | 14.9% | 14.2% | 14.2% | 9.4% | 12.15% |  |  |  |  |  | 
3 | C#CCNC(=O)[C@H](Cc1ccccc1)C[C@H](O)CNS(=O)(=O)c1ccc([N+](=O)[O-])cc1 [Compound B21A] | 9.4% | 7.2% | -0.2% | 5.4% | 7.8% | 7.3% | 3.55% |  |  |  |  |  | 
4 | C#CCNC(=O)[C@@H](Cc1ccccc1)C[C@H](O)CNS(=O)(=O)c1ccc([N+](=O)[O-])cc1 [Compound B21B] | 3.3% | 3.4% | 7% | 3.1% | 7.3% | 13.5% | 10.25% |  |  |  |  |  | 

The remaining lines, values ahead:

Row | inhibition at 0.5 µM (VIPR2 [1]; Batch 2) | inhibition at 1 µM (VIPR2 [1]; Batch 2) | inhibition at 5 µM (VIPR2 [1]; Batch 2) | inhibition at 0.5 µM (VIPR2 [2]; Batch 2) | inhibition at 1 µM (VIPR2 [2]; Batch 2) | inhibition at 5 µM (VIPR2 [2]; Batch 2) | % Activity (VIPR2 [3]) | inhibition at 0.5 µM (VIPR2 [1]; Batch 3) | inhibition at 1 µM (VIPR2 [1]; Batch 3) | inhibition at 5 µM (VIPR2 [1]; Batch 3) | inhibition at 0.5 µM (VIPR2 [2]; Batch 3) | inhibition at 1 µM (VIPR2 [2]; Batch 3) | inhibition at 5 µM (VIPR2 [2]; Batch 3) | SMILES
5 | -8.4% | -17.8% | -4.5% | 2.1% | 4.4% | 6.2% | 0.85% |  |  |  |  |  |  | O=C([C@H](Cc1ccccc1)C[C@H](O)CNS(=O)(=O)c1ccc([N+](=O)[O-])cc1)N1CCC(CO)CC1 [Compound B19]
6 | 6.9% | 4% | 3.2% | 7% | 8.3% | 9.3% | 6.25% |  |  |  |  |  |  | CNC(=O)[C@H](Cc1ccccc1)C[C@H](O)CNS(=O)(=O)c1ccc([N+](=O)[O-])cc1 [Compound B20]
7 |  |  |  |  |  |  | 20% | -5.6% | -5.5% | 6.7% | 8.4% | 18.6% | 33.3% | Nc1ccc(S(=O)(=O)NC[C@@H](O)C[C@@H](Cc2ccccc2)C(=O)N[C@H]2c3ccccc3C[C@H]2O)cc1 [Compound X081]
8 |  |  |  |  |  |  | −1.5% | -0.8% | 1.1% | 4.3% | -0.9% | 2% | -7.3% | CNc1ccc(S(=O)(=O)NC[C@@H](O)C[C@@H](Cc2ccccc2)C(=O)N[C@H]2c3ccccc3C[C@H]2O)cc1 [Compound X082]
9 |  |  |  |  |  |  | 2.65% | 4.2% | -1.6% | 8.7% | 9.4% | -1.4% | -3.4% | CN(C)c1ccc(S(=O)(=O)NC[C@@H](O)C[C@@H](Cc2ccccc2)C(=O)N[C@H]2c3ccccc3C[C@H]2O)cc1 [Compound X083]
10 |  |  |  |  |  |  | 15.6% | 4.1% | 2.6% | 6.7% | -2.9% | 11.3% | 24.5% | CCCNc1ccc(S(=O)(=O)NC[C@@H](O)C[C@@H](Cc2ccccc2)C(=O)N[C@H]2c3ccccc3C[C@H]2O)cc1 [Compound X084]
11 |  |  |  |  |  |  | 16.2% | 8.1% | -2% | 11.8% | 17.2% | 18.2% | 20.6% | CC(C)Nc1ccc(S(=O)(=O)NC[C@@H](O)C[C@@H](Cc2ccccc2)C(=O)N[C@H]2c3ccccc3C[C@H]2O)cc1 [Compound X085]
